Where a name gives a salt, the structure may show the parent alone.
Target: T1, Farnesyltransferase (FTase) (Bos taurus, UniProt P29702+P49355)
T1 construct: precipitation from a beef brain homogenate; from tissue; host or cells: bovine brain
Experiment: Farnesyltransferase inhibition (scintillation proximity assay, [3H]-FPP / biotin-K-ras peptide)
Assay type: biochemical, bovine
Details: compound at 10^−6 M, bovine FTase, 37° C., 30 minutes
Method in brief: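 Read-out: [3H]-FPP prenylation of a biotinylated K-ras peptide by SPA, measured 1 h after quenching. Enzyme: FTase purified from bovine brain (ammonium sulfate cut, DEAE Sepharose), free of GGTase I and II. Test compounds in ethanol, diluted 10-fold into the reaction.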

T1 sequence (P49355 whole entry, one chain of several): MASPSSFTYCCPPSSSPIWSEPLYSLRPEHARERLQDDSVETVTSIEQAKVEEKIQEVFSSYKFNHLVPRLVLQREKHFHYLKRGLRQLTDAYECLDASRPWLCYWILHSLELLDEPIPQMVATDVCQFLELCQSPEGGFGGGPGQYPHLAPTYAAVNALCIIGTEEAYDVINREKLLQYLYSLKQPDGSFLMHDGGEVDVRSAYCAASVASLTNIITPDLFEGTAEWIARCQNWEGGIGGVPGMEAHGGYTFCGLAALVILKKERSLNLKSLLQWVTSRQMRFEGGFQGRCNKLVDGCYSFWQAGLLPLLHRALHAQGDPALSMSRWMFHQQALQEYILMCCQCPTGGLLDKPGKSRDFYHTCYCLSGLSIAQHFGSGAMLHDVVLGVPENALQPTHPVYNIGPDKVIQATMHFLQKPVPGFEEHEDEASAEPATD

SMILES | inhibition at 1 µM | further results
Cn1cncc1C(OCc1ccc(C#N)cc1)c1ccc(C#N)c(-c2cccc3cccnc23)c1 (stereo not shown) [Example 18, 4-(((4-cyanobenzyl)oxy)(1-methyl-1H-imidazol-5-yl)methyl)-2-(8-quinolinyl)benzonitrile dihydrochloride] | 100% | –
Cc1ccccc1-c1cc(C(Cn2ccnc2)OCc2ccccc2)ccc1C#N (stereo not shown) [Example 210, 5-(1-(benzyloxy)-2-(1H-imidazol-1-yl)ethyl)-2′-methyl(1,1′-biphenyl)-2-carbonitrile hydrochloride] | 48% | –
COc1ccc(C(C)=O)cc1COC(c1ccc(C#N)c(-c2ccccc2C)c1)c1cncn1C (stereo not shown) [Example 170, 5-(((5-acetyl-2-methoxybenzyl)oxy)(1-methyl-1H-imidazol-5-yl)methyl)-2′-methyl(1,1′-biphenyl)-2-carbonitrile hydrochloride] | 85% | –
Cc1cc(C)cc(COC(c2ccc(C#N)c(-c3ccccc3C)c2)c2cncn2C)c1.Cl (stereo not shown) [Example 158, 5-(((3,5-dimethylbenzyl)oxy)(1-methyl-1H-imidazol-5-yl)methyl)-2′-methyl(1,1′-biphenyl)-2-carbonitrile hydrochloride] | – | % Inhibition at 10^−6M (hydrochloride): 95%
Cn1cncc1CN(Cc1ccc(C#N)c(-c2cccc3ccccc23)c1)C(=O)c1cnc(Cl)c(Cl)c1 [Example 199, 5,6-dichloro-N-(4-cyano-3-(1-naphthyl)benzyl)-N-((1-methyl-1H-imidazol-5-yl)methyl)nicotinamide] | 89% | –
Cc1ccccc1-c1cc(C(OCc2cc3c(cc2Cl)OCO3)c2cncn2C)ccc1C#N (stereo not shown) [Example 152, 5-(((6-chloro-1,3-benzodioxol-5-yl)methoxy)(1-methyl-1H-imidazol-5-yl)methyl)-2′-methyl(1,1′-biphenyl)-2-carbonitrile hydrochloride] | 89% | –
COc1ccc([N+](=O)[O-])cc1COC(c1ccc(C#N)c(-c2ccccc2C)c1)c1cncn1C (stereo not shown) [Example 122, 5-(((2-methoxy-5-nitrobenzyl)oxy)(1-methyl-1H-imidazol-5-yl)methyl)-2′-methyl(1,1′-biphenyl)-2-carbonitrile hydrochloride] | 94% | –
Cc1ccccc1-c1cc(C(OCc2ccccc2)c2cncn2C)ccc1C#N (stereo not shown) [Example 11, 5-((benzyloxy)(1-methyl-1H-imidazol-5-yl)methyl)-2′-methyl(1,1′-biphenyl)-2-carbonitrile hydrochloride] | 94% | –
Cc1ccccc1-c1cc(C(OCc2ccc(C(C)C)cc2)c2cncn2C)ccc1C#N (stereo not shown) [Example 153, 5-(((4-isopropylbenzyl)oxy)(1-methyl-1H-imidazol-5-yl)methyl)-2′-methyl(1,1′-biphenyl)-2-carbonitrile hydrochloride] | 92% | –
COC(=O)c1cccc(CN(Cc2cncn2C)c2ccc(C#N)c(-c3cccc4ccccc34)c2)c1 [Example 271, methyl 3-((4-cyano((1-methyl-1H-imidazol-5-yl)methyl)-3-(1-naphthyl)anilino)methyl)benzoate] | – | % Inhibition at 10^−6M: 100%
CCOC(=O)N1CCC(NC(c2ccc(C#N)c(-c3cccc4ccccc34)c2)c2cncn2C)CC1 (stereo not shown) [Example 50, ethyl 4-(((4-cyano-3-(1-naphthyl)phenyl)(1-methyl-1H-imidazol-5-yl)methyl)amino)-1-piperidinecarboxylate dihydrochloride] | 100% | –
Cn1cncc1C(OCc1ccc(C#N)cn1)c1ccc(C#N)c(-c2cccc(Cl)c2Cl)c1 (stereo not shown) [Example 280, 6-(((2′,3′-dichloro-6-cyano(1,1′-biphenyl)-3-yl)(1-methyl-1H-imidazol-5-yl)methoxy)methyl)nicotinonitrile dihydrochloride] | 98% | –
Cc1ccccc1-c1cc(NCc2cccnc2)ccc1C#N [Example 216, 2′-methyl-5-((3-pyridinylmethyl)amino)(1,1′-biphenyl)-2-carbonitrile] | 27% | –
Cc1ccccc1-c1cc(C(Oc2ccccc2)c2cncn2C)ccc1C#N (stereo not shown) [Example 4, 2′-methyl-5-((1-methyl-1H-imidazol-5-yl)(phenoxy)methyl)(1,1′-biphenyl)-2-carbonitrile hydrochloride] | 88% | –
Cc1ccccc1-c1cc(C(OCc2ccc(C(F)(F)F)cc2F)c2cncn2C)ccc1C#N (stereo not shown) [Example 187, 5-(((2-fluoro-4-(trifluoromethyl)benzyl)oxy)(1-methyl-1H-imidazol-5-yl)methyl)-2′-methyl(1,1′-biphenyl)-2-carbonitrile hydrochloride] | 93% | –
CCOC(=O)N1CCC(N(Cc2ccc(C#N)c(-c3cccc4ccccc34)c2)Cc2cncn2C)CC1 [Example 209, ethyl 4-((4-cyano-3-(1-naphthyl)benzyl)((1-methyl-1H-imidazol-5-yl)methyl)-amino)-1-piperidinecarboxylate] | 93% | –
Cc1ccccc1-c1cc(CN(Cc2ccccc2)Cc2cncn2C)ccc1C#N [Example 32, 5-((benzyl((1-methyl-1H-imidazol-5-yl)methyl)amino)methyl)-2′-methyl(1,1′-biphenyl)-2-carbonitrile dihydrochloride] | 93% | –

SMILES | inhibition at 1 µM | further results
Cc1ccccc1-c1cc(N(Cc2cncn2C)C(=O)c2ccccc2)ccc1C#N [Example 236, N-(6-cyano-2′-methyl(1,1′-biphenyl)-3-yl)-N-((1-methyl-1H-imidazol-5-yl)methyl)benzamide] | 93% | –
CCN(Cc1ccc([N+](=O)[O-])cc1)C(c1ccc(C#N)c(-c2ccccc2C)c1)c1cncn1C (stereo not shown) [Example 27, 5-((ethyl(4-nitrobenzyl)amino)(1-methyl-1H-imidazol-5-yl)methyl)-2′-methyl(1,1′-biphenyl)-2-carbonitrile dihydrochloride] | 100% | –
Cn1cncc1C(NC1CCN(C(=O)OC(C)(C)C)CC1)c1ccc(C#N)c(-c2cccc3ccccc23)c1 (stereo not shown) [Example 56, tert-butyl 4-(((4-cyano-3-(1-naphthyl)phenyl)(1-methyl-1H-imidazol-5-yl)methyl)amino)-1-piperidinecarboxylate] | 100% | –
Cc1ccccc1-c1cc(CNc2cccnc2)ccc1C#N [Example 212, 2′-methyl-5-((3-pyridinylamino)methyl)(1,1′-biphenyl)-2-carbonitrile] | 10% | –
Cc1ccccc1-c1cc(CN(Cc2ccccc2)Cc2cccnc2)ccc1C#N [Example 215, 5-((benzyl(3-pyridinylmethyl)amino)methyl)-2′-methyl(1,1′-biphenyl)-2-carbonitrile hydrochloride] | 29% | –
COC(=O)c1ccc(CN(Cc2cncn2C)c2ccc(C#N)c(-c3cccc4ccccc34)c2)cc1 [Example 268, methyl 4-((4-cyano((1-methyl-1H-imidazol-5-yl)methyl)-3-(1-naphthyl)anilino)methyl)benzoate] | – | % Inhibition at 10^−6M: 100%
Cc1cccc(-c2cc(C(OCc3ccccc3)c3cncn3C)ccc2C#N)c1 (stereo not shown) [Example 91, 5-((benzyloxy)(1-methyl-1H-imidazol-5-yl)methyl)-3′-methyl(1,1′-biphenyl)-2-carbonitrile hydrochloride] | 94% | –
Cn1cncc1C(NCc1ccc(Cl)cc1)c1ccc(C#N)c(-c2cccc3ccccc23)c1 (stereo not shown) [Example 42, 4-(((4-chlorobenzyl)amino)(1-methyl-1H-imidazol-5-yl)methyl)-2-(1-naphthyl)benzonitrile] | 100% | –
Cn1cncc1CN(Cc1cccc(Cl)c1)c1ccc(C#N)c(-c2cccc3ccccc23)c1 [Example 264, 4-((3-chlorobenzyl)((1-methyl-1H-imidazol-5-yl)methyl)amino)-2-(1-naphthyl)benzonitrile] | 100% | –
Cc1ccccc1-c1cc(C(OCc2cccc(Cl)c2)c2cncn2C)ccc1C#N (stereo not shown) [Example 120, 5-(((3-chlorobenzyl)oxy)(1-methyl-1H-imidazol-5-yl)methyl)-2′-methyl(1,1′-biphenyl)-2-carbonitrile hydrochloride] | 90% | –
Cc1ccc(COC(c2ccc(C#N)c(-c3ccccc3C)c2)c2cncn2C)cc1C (stereo not shown) [Example 154, 5-(((3,4-dimethylbenzyl)oxy)(1-methyl-1H-imidazol-5-yl)methyl)-2′-methyl(1,1′-biphenyl)-2-carbonitrile hydrochloride] | 95% | –
Cn1cncc1C(NCc1ccc(C#N)cn1)c1ccc(C#N)c(-c2cccc3ccccc23)c1 (stereo not shown) [Example 51, 6-((((4-cyano-3-(1-naphthyl)phenyl)(1-methyl-1H-imidazol-5-yl)methyl)amino)methyl)nicotinonitrile trihydrochloride] | 100% | –
Cn1cncc1CN(C(=O)c1ccccc1)c1ccc(C#N)c(-c2cccc3ccccc23)c1 [Example 235, N-(4-cyano-3-(1-naphthyl)phenyl)-N-((1-methyl-1H-imidazol-5-yl)methyl)benzamide] | 100% | –
COc1ccc(-c2nc(COC(c3ccc(C#N)c(-c4ccccc4C)c3)c3cncn3C)no2)cc1 (stereo not shown) [Example 172, 5-(((5-(4-methoxyphenyl)-1,2,4-oxadiazol-3-yl)methoxy)(1-methyl-1H-imidazol-5-yl)methyl)-2′-methyl(1,1′-biphenyl)-2-carbonitrile hydrochloride] | 85% | –
Cn1cncc1C(OCc1ccc(C(N)=O)cn1)c1ccc(C#N)c(-c2cccc3cccnc23)c1 (stereo not shown) [Example 244, 6-(((4-cyano-3-(8-quinolinyl)phenyl)(1-methyl-1H-imidazol-5-yl)methoxy)methyl)nicotinamide trihydrochloride] | 90% | –
Cn1cncc1CN(Cc1ccc(C#N)cc1)C(=O)c1ccc(C#N)c(-c2cccc3cccnc23)c1 [Example 206, 4-cyano-N-(4-cyanobenzyl)-N-((1-methyl-1H-imidazol-5-yl)methyl)-3-(8-quinolinyl)benzamide] | 88% | –
Cc1ccccc1-c1cc(C(OCc2ccc3ccccc3c2)c2cncn2C)ccc1C#N (stereo not shown) [Example 183, 2′-methyl-5-((1-methyl-1H-imidazol-5-yl)(2-naphthylmethoxy)methyl)(1,1′-biphenyl)-2-carbonitrile hydrochloride] | 90% | –
